The values that follow come from publication PMC7970697, “Inhibition and Induction by Poziotinib of Different Rat Cytochrome P450 Enzymes In Vivo and in an In Vitro Cocktail Method” (Frontiers in Pharmacology, 2021).

The test system of series [1] is cyp3a1/2. Nature of the series: Effect of poziotinib on cyp3a1/2 activity in rats (midazolam pharmacokinetics). It is filed as in vivo, Sprague-Dawley rats. To be noted: poziotinib 5 mg/kg oral 7 days, midazolam probe.
Experimental: (§1) Twelve male Sprague-Dawley rats (230 ± 20 g) were randomly divided into treated and control groups, with 6 in each group. […] The supernatant was mixed with 200 μL of acetonitrile and 20 μL of 0.5 μg/ml diazepam (IS), vortexed for 30 s, centrifuged at 13,000 rpm for 5 min, and the supernatant was injected into the UPLC-MS/MS system for analysis.
(§2) Pharmacokinetic parameters were calculated using DAS software (Version 3.2.8). SPSS software (version 16.0; SPSS Inc., Chicago, IL, United States) was used to analyze the significance of differences between the main pharmacokinetic parameters. p < 0.05 was considered statistically significant. GraphPad (version 8.0; GraphPad Software Inc., San Diego, CA, United States) was used to calculate IC50 and plot the plasma concentration-time curves and inhibition plots (type of inhibition, time- and concentration-dependence).
Series [2] addresses T1, cyp2b1 (Rattus norvegicus, UniProt P00176).
T1 sequence (P00176 1-491): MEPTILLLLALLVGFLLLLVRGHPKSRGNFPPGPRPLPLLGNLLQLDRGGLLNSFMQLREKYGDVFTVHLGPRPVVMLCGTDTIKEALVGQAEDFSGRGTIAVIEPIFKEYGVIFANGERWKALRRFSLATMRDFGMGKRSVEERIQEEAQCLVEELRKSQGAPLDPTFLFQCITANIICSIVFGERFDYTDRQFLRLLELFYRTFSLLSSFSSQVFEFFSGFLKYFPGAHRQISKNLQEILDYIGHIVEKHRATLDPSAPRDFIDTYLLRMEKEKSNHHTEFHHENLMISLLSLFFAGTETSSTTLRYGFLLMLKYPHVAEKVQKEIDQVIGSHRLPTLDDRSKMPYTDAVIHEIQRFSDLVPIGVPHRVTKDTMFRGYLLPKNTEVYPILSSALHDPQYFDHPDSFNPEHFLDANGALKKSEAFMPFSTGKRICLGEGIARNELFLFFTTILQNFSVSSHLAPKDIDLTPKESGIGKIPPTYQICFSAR
As to the kind of experiment: Cocktail method IC50 in rat liver microsomes, bupropion probe. Also noted: from tissue; host or cells: rat liver microsomes, prepared in-house. It is filed as in vitro ADME. On the procedure:
The cocktail method was employed to analyze the effects of poziotinib on cyp1a2, cyp2b1, cyp2c11, cyp2d1, cyp2e1, and cyp3a1/2. […] Then half-maximal inhibitory concentration (IC50) of poziotinib was determined with all of the CYPs. […]. To this cocktail, 1 mg/ml of RLMs, 100 mM potassium phosphate buffer (pH 7.4), poziotinib (1, 2.5, 5, 10, 25, 50, or 100 μM) were added to obtain a final volume of 200 μL. After pre-incubation of this mixture for 5 min in a shaking water bath at 37°C, 1 mM NADPH was added to start the reaction. The reactions were allowed to proceed for 30 min, after which 200 μL of acetonitrile and 20 μL of IS were added to terminate the reactions. The mixtures were vortexed for 30 s and centrifuged again at 13,000 rpm for 5 min.
(Microsomes from liver hold many membrane-bound enzymes, among them those of drug oxidation.)

For series [3], the target named is T1, cyp2b1. As to the kind of experiment: Effect of poziotinib on cyp2b1 activity in rats (bupropion pharmacokinetics). It is filed as in vivo, Sprague-Dawley rats. Further details: from tissue; host or cells: living male Sprague-Dawley rats (whole animal). To be noted: poziotinib 5 mg/kg oral 7 days, bupropion probe.
Experimental: as §1, §2

Read-outs that look alike come from different tables or passages of the source.

Turning to `C=CC(=O)N1CCC(Oc2cc3c(Nc4ccc(Cl)c(Cl)c4F)ncnc3cc2OC)CC1` [Poziotinib], the “effect on cyp3a1/2 activity in rats” value in series [1] is on record as “no significant inhibitory effect”. The IC50 is 8.79 µM in series [2] (20 μM bupropion, cocktail, 30 min, read-out: IC50) and 1 to 10 µM in series [2] (classes after Jin et al., 2015, read-out: inhibition class by IC50, CYP2B1). Also, the “effect on cyp2b1 activity in rats” value in series [3] is on record as “inhibitory effect”.

The IC50 is the concentration that inhibits the measured activity by half.
